Assay results as given in patent US20100221350A1, “DERMATOLOGICAL COMPOSITIONS COMPRISING VITAMIN D LIPID VESICLES” (GALDERMA S.A., priority 2007, published 2010).

Experiment: Preformulation stability and solubility tests of calcitriol in two excipients
Assay type: physicochemical
Settings: 800 ppm; 4° C., ambient temperature and 40° C.; 1 month
Method: Preliminary preformulation studies were carried out to direct the choice of the lipid core (oily internal phase) of the lipid vesicles. The results of tests of stability and of solubility of calcitriol in two excipients are presented in the graphs below. The objective of these solubility and stability studies on calcitriol is to find the oil which will make possible good solubility of calcitriol for the proposals for internal phase used in this concept and good stability of calcitriol in this excipient. Calcitriol is stable at 800 ppm in Miglyol 812 (caprylic/capric triglyceride: MTC) and tocopherol acetate at the three temperatures (4° C., ambient temperature and 40° C.) for 1 month.

C=C1/C(=C\C=C2/CCC[C@]3(C)[C@@H]([C@H](C)CCCC(C)(C)O)CC[C@@H]23)C[C@@H](O)C[C@@H]1O [Calcitriol, calcitriol]
Stability of calcitriol in Miglyol 812 (caprylic/capric triglyceride): stable
Stability of calcitriol in tocopherol acetate: stable
